Test results: patent US20090018111A1, “Novel Antimicrobial Medicament” (priority 2004, published 2009)
Where two headings read alike, the source gives them in different places.

Columns and labels:
Test in all cases: Sensitivity test (agar dilution)
S. aureus 209P = assay type: cell-based, Staphylococcus aureus; conditions: for MIC: Staphylococcus aureus, 209P
How it was run: (§1)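 MICs were determined by agar dilution on Mueller Hinton agar containing twofold serial dilutions of single drugs or drug combinations. Overnight 37° C cultures were suspended in gelatin-buffered saline at about 10^6 CFU/ml, and about 5 μl was spot-inoculated. FIC index was calculated from MICs; ≤1 denotes enhancement.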

[1] = tested on: S. aureus MS94088 (hetero-MRSA); assay type: cell-based, Staphylococcus aureus; conditions: Staphylococcus aureus, MRSA
How it was run: as §1

[2] = tested on: S. aureus SP-7928 (homo-MRSA); assay type: cell-based, Staphylococcus aureus
How it was run: as §1

P. aeruginosa IFO3451 = assay type: cell-based, Pseudomonas aeruginosa; conditions: Pseudomonas aeruginosa
How it was run: as §1

E. cloacae GN7471 = assay type: cell-based, Enterobacter cloacae; conditions: Enterobacter cloacae
How it was run: as §1

Str. pyogenes Cook = assay type: cell-based, Streptococcus pyogenes; conditions: Streptococcus pyogenes
How it was run: as §1

S. epidermidis IAM1296 = assay type: cell-based, Staphylococcus epidermidis; conditions: Staphylococcus epidermidis
How it was run: as §1

[3] = Concomitant (IPM:SM = 1:1), read-out: MIC
[4] = Concomitant (MEPM:SM = 1:1), read-out: MIC
[5] = Concomitant (MEPM:SM = 1:2), read-out: MIC
[6] = Concomitant (MEPM:SM = 1:4), read-out: MIC
[7] = Concomitant drug (MEPM:SM = 2:1), read-out: MIC

C[C@H]1C=C(c2csc(SC3=C(C(=O)O)N4C(=O)[C@H]([C@@H](C)O)[C@H]4[C@H]3C)n2)CN1 [SM, (4R,5S,6S)-6-[(1R)-1-Hydroxyethyl]-4-methyl-3-({4-[(5S)-5-methyl-2,5-dihydro-1H-pyrrol-3-yl]-1,3-thiazol-2-yl}sulfanyl)-7-oxo-1-azabicyclo[3.2.0]hept-2-ene-2-carboxylic acid]
2 µg/mL: MIC ([2]; Staphylococcus aureus, MRSA, Concomitant (AZT:SM = 1:1), S. aureus SP-7928 (homo-MRSA), read-out: MIC concomitant) | MIC ([2]; Staphylococcus aureus, MRSA, Concomitant (BIPM:SM = 1:1), S. aureus SP-7928 (homo-MRSA), read-out: MIC concomitant) | MIC ([2]; Staphylococcus aureus, MRSA, Concomitant (IPM:SM = 1:1), read-out: MIC) | MIC ([2]; Staphylococcus aureus, MRSA, Concomitant (MEPM:SM = 1:2), read-out: MIC) | MIC ([2]; Staphylococcus aureus, MRSA, Concomitant (MEPM:SM = 1:4), read-out: MIC) | MIC ([2]; Staphylococcus aureus, MRSA, Concomitant (PAPM:SM = 1:1), S. aureus SP-7928 (homo-MRSA), read-out: MIC concomitant) | MIC ([2]; Staphylococcus aureus, MRSA, drug alone, S. aureus SP-7928 (homo-MRSA), read-out: MIC alone) | MIC ([2]; alone) | MIC (P. aeruginosa IFO3451; IFO3451, Concomitant (AZT:SM = 1:1), P. aeruginosa IFO3451, read-out: MIC concomitant) | MIC (P. aeruginosa IFO3451; IFO3451, Concomitant (CAZ:SM = 1:1), P. aeruginosa IFO3451, read-out: MIC concomitant) | MIC (P. aeruginosa IFO3451; IFO3451, Concomitant (MEPM:SM = 1:4), read-out: MIC) | MIC (P. aeruginosa IFO3451; IFO3451, Concomitant (PAPM:SM = 1:1), P. aeruginosa IFO3451, read-out: MIC concomitant)
≤ 0.063 µg/mL: MIC (S. aureus 209P; [6]) | MIC (Str. pyogenes Cook; [6])
≤ 0.031 µg/mL: MIC (S. aureus 209P; [5]) | MIC (Str. pyogenes Cook; [5])
8 µg/mL: MIC (P. aeruginosa IFO3451; IFO3451, Concomitant (PIPC:SM = 1:1), P. aeruginosa IFO3451, read-out: MIC concomitant) | MIC (P. aeruginosa IFO3451; IFO3451, alone, read-out: MIC) | MIC (P. aeruginosa IFO3451; IFO3451, drug alone, P. aeruginosa IFO3451, read-out: MIC alone) | MIC (E. cloacae GN7471; GN7471, Concomitant (CAZ:SM = 1:1), E. cloacae GN7471, read-out: MIC concomitant) | MIC (E. cloacae GN7471; GN7471, Concomitant (PIPC:SM = 1:1), E. cloacae GN7471, read-out: MIC concomitant) | MIC (E. cloacae GN7471; GN7471, alone, read-out: MIC) | MIC (E. cloacae GN7471; GN7471, drug alone, E. cloacae GN7471, read-out: MIC alone)
0.5 µg/mL: MIC (P. aeruginosa IFO3451; IFO3451, Concomitant (IPM:SM = 1:1), read-out: MIC) | MIC (P. aeruginosa IFO3451; IFO3451, Concomitant (MEPM:SM = 1:1), read-out: MIC)
0.063 µg/mL: MIC (E. cloacae GN7471; GN7471, Concomitant (BIPM:SM = 1:1), E. cloacae GN7471, read-out: MIC concomitant) | MIC (E. cloacae GN7471; GN7471, Concomitant (MEPM:SM = 1:2), read-out: MIC)
0.25 µg/mL: MIC ([1]; Concomitant (AZT:SM = 1:1), S. aureus MS94088 (hetero-MRSA), read-out: MIC concomitant) | MIC ([1]; Concomitant (BIPM:SM = 1:1), S. aureus MS94088 (hetero-MRSA), read-out: MIC concomitant) | MIC ([1]; Concomitant (CAZ:SM = 1:1), S. aureus MS94088 (hetero-MRSA), read-out: MIC concomitant) | MIC ([1]; Concomitant (DRPM:SM = 1:1), S. aureus MS94088 (hetero-MRSA), read-out: MIC concomitant) | MIC [1, 3] | MIC [1, 4] | MIC [1, 5] | MIC [1, 6] | MIC ([1]; Concomitant (PAPM:SM = 1:1), S. aureus MS94088 (hetero-MRSA), read-out: MIC concomitant) | MIC [1, 7] | MIC ([1]; alone, read-out: MIC) | MIC ([1]; drug alone, S. aureus MS94088 (hetero-MRSA), read-out: MIC alone) | MIC ([2]; Staphylococcus aureus, MRSA, Concomitant (CPFX:SM = 1:1), S. aureus SP-7928 (homo-MRSA), read-out: MIC concomitant) | MIC (P. aeruginosa IFO3451; IFO3451, Concomitant (BIPM:SM = 1:1), P. aeruginosa IFO3451, read-out: MIC concomitant) | MIC (P. aeruginosa IFO3451; IFO3451, Concomitant (DRPM:SM = 1:1), P. aeruginosa IFO3451, read-out: MIC concomitant) | MIC (P. aeruginosa IFO3451; IFO3451, Concomitant drug (MEPM:SM = 2:1), read-out: MIC)
4 µg/mL: MIC (E. cloacae GN7471; GN7471, Concomitant (AZT:SM = 1:1), E. cloacae GN7471, read-out: MIC concomitant)
0.016 µg/mL: MIC (E. cloacae GN7471; GN7471, Concomitant (CPFX:SM = 1:1), E. cloacae GN7471, read-out: MIC concomitant) | MIC (E. cloacae GN7471; GN7471, Concomitant drug (MEPM:SM = 2:1), read-out: MIC) | MIC (S. epidermidis IAM1296; IAM1296, Concomitant (IPM:SM = 1:1), read-out: MIC)
≤ 0.016 µg/mL: MIC (S. aureus 209P; [4]) | MIC (Str. pyogenes Cook; [4])
0.125 µg/mL: MIC ([1]; Concomitant (CPFX:SM = 1:1), S. aureus MS94088 (hetero-MRSA), read-out: MIC concomitant) | MIC ([1]; Concomitant (PIPC:SM = 1:1), S. aureus MS94088 (hetero-MRSA), read-out: MIC concomitant) | MIC (P. aeruginosa IFO3451; IFO3451, Concomitant (CPFX:SM = 1:1), P. aeruginosa IFO3451, read-out: MIC concomitant) | MIC (E. cloacae GN7471; GN7471, Concomitant (IPM:SM = 1:1), read-out: MIC) | MIC (E. cloacae GN7471; GN7471, Concomitant (MEPM:SM = 1:4), read-out: MIC) | MIC (E. cloacae GN7471; GN7471, Concomitant (PAPM:SM = 1:1), E. cloacae GN7471, read-out: MIC concomitant)
0.008 µg/mL: MIC (S. aureus 209P; Concomitant (AZT:SM = 1:1), S. aureus 209P, read-out: MIC concomitant) | MIC (S. aureus 209P; Concomitant (BIPM:SM = 1:1), S. aureus 209P, read-out: MIC concomitant) | MIC (S. aureus 209P; Concomitant (CPFX:SM = 1:1), S. aureus 209P, read-out: MIC concomitant) | MIC (S. aureus 209P; drug alone, S. aureus 209P, read-out: MIC alone)
1 µg/mL: MIC ([2]; Staphylococcus aureus, MRSA, Concomitant (CAZ:SM = 1:1), S. aureus SP-7928 (homo-MRSA), read-out: MIC concomitant) | MIC ([2]; Staphylococcus aureus, MRSA, Concomitant (DRPM:SM = 1:1), S. aureus SP-7928 (homo-MRSA), read-out: MIC concomitant) | MIC ([2]; Staphylococcus aureus, MRSA, Concomitant (MEPM:SM = 1:1), read-out: MIC) | MIC ([2]; Staphylococcus aureus, MRSA, Concomitant (PIPC:SM = 1:1), S. aureus SP-7928 (homo-MRSA), read-out: MIC concomitant) | MIC ([2]; Staphylococcus aureus, MRSA, Concomitant drug (MEPM:SM = 2:1), read-out: MIC) | MIC ([2]; Staphylococcus aureus, MRSA, alone, read-out: MIC) | MIC alone ([2]; drug alone, S. aureus SP-7928 (homo-MRSA)) | MIC (P. aeruginosa IFO3451; IFO3451, Concomitant (MEPM:SM = 1:2), read-out: MIC)
≤ 0.008 µg/mL: MIC (S. aureus 209P; [7]) | MIC (S. aureus 209P; alone, read-out: MIC) | MIC (Str. pyogenes Cook; [7]) | MIC (Str. pyogenes Cook; alone, read-out: MIC)
0.031 µg/mL: MIC (E. cloacae GN7471; GN7471, Concomitant (DRPM:SM = 1:1), E. cloacae GN7471, read-out: MIC concomitant) | MIC (E. cloacae GN7471; GN7471, Concomitant (MEPM:SM = 1:1), read-out: MIC) | MIC (S. epidermidis IAM1296; IAM1296, Concomitant (AZT:SM = 1:1), S. epidermidis IAM1296, read-out: MIC concomitant) | MIC (S. epidermidis IAM1296; IAM1296, Concomitant (BIPM:SM = 1:1), S. epidermidis IAM1296, read-out: MIC concomitant) | MIC (S. epidermidis IAM1296; IAM1296, Concomitant (CAZ:SM = 1:1), S. epidermidis IAM1296, read-out: MIC concomitant) | MIC (S. epidermidis IAM1296; IAM1296, Concomitant (CPFX:SM = 1:1), S. epidermidis IAM1296, read-out: MIC concomitant) | MIC (S. epidermidis IAM1296; IAM1296, Concomitant (DRPM:SM = 1:1), S. epidermidis IAM1296, read-out: MIC concomitant)
≤ 0.002 µg/mL: MIC (Str. pyogenes Cook; Concomitant (DRPM:SM = 1:1), Str. pyogenes Cook, read-out: MIC concomitant) | MIC (Str. pyogenes Cook; [3]) | MIC (Str. pyogenes Cook; Concomitant (PAPM:SM = 1:1), Str. pyogenes Cook, read-out: MIC concomitant) | MIC (Str. pyogenes Cook; Concomitant (PIPC:SM = 1:1), Str. pyogenes Cook, read-out: MIC concomitant)
0.004 µg/mL: MIC (S. aureus 209P; Concomitant (CAZ:SM = 1:1), S. aureus 209P, read-out: MIC concomitant) | MIC (S. aureus 209P; Concomitant (DRPM:SM = 1:1), S. aureus 209P, read-out: MIC concomitant) | MIC (S. aureus 209P; [3]) | MIC (S. aureus 209P; Concomitant (PAPM:SM = 1:1), S. aureus 209P, read-out: MIC concomitant) | MIC (S. aureus 209P; Concomitant (PIPC:SM = 1:1), S. aureus 209P, read-out: MIC concomitant) | MIC alone (S. aureus 209P; drug alone, S. aureus 209P) | MIC (Str. pyogenes Cook; Concomitant (AZT:SM = 1:1), Str. pyogenes Cook, read-out: MIC concomitant) | MIC (Str. pyogenes Cook; Concomitant (BIPM:SM = 1:1), Str. pyogenes Cook, read-out: MIC concomitant) | MIC (Str. pyogenes Cook; Concomitant (CAZ:SM = 1:1), Str. pyogenes Cook, read-out: MIC concomitant) | MIC (Str. pyogenes Cook; Concomitant (CPFX:SM = 1:1), Str. pyogenes Cook, read-out: MIC concomitant) | MIC (Str. pyogenes Cook; drug alone, Str. pyogenes Cook, read-out: MIC alone)
